In the supplement of paper PMC13380429:

Experiments:
[1] = tested on: A549-ACE2 infected with SARS-CoV-2; test: morphology score (similarity to uninfected cells); higher = more like uninfected cells; conditions: 24 h
[2] = tested on: A549-ACE2 infected with SARS-CoV-2; test: cell count relative to DMSO; higher = less toxic; conditions: 24 h
Caco-2 [3] = test: cell viability relative to DMSO; higher = less toxic; conditions: 72 h
Calu-3 [4] = test: as above; conditions: 72 h
HepG2 [5] = test: as above; conditions: 72 h
U2OS [6] = test: as above; conditions: 72 h
Vero E6 [7] = test: as above; conditions: 72 h
[8] = tested on: A549-ACE2 infected with SARS-CoV-2; test: SARS-CoV-2 infection rate relative to DMSO; higher = more infection; conditions: 24 h
A549-ACE2 = test: drug-induced phospholipidosis relative to tamoxifen; higher = more phospholipidosis
Caco-2 [9] = test: relative viability EC50 (midpoint between 100% and the lowest measured viability); higher = less toxic; conditions: 72 h
Calu-3 [10] = test: as above; conditions: 72 h
Vero E6 [11] = test: as above; conditions: 72 h
Caco-2 [12] = test: drug sensitivity score (DSS) for viability; higher = more toxic; extreme values may be limits of the assay; conditions: 72 h
Calu-3 [13] = test: as above; conditions: 72 h
HepG2 [14] = test: as above; conditions: 72 h
U2OS [15] = test: as above; conditions: 72 h
Vero E6 [16] = test: as above; conditions: 72 h

## CCC(C)(C)C(=O)O[C@H]1C[C@@H](C)C=C2C=C[C@H](C)[C@H](CC[C@@H]3C[C@@H](O)CC(=O)O3)[C@H]21 [simvastatin]
[1]; 0.1 µM
  morphology score: 0.01
[1]; 0.3 µM
  morphology score: 0.17
[1]; 1 µM
  morphology score: 0.04
[1]; 3 µM
  morphology score: -0.23

## CN1CCN(S(=O)(=O)c2ccc(-c3cnc(N)c(C(=O)Nc4cccnc4)n3)cc2)CC1 [AZD2858]
[2]; 0.1 µM
  cell count: 100%
[2]; 0.3 µM
  cell count: 96%
[2]; 1 µM
  cell count: 107%
[2]; 3 µM
  cell count: 97%
Caco-2 [3]; 1 nM
  cell viability: 96.7%
Caco-2 [3]; 10 nM
  cell viability: 96.7%
Caco-2 [3]; 100 nM
  cell viability: 102%
Caco-2 [3]; 1000 nM
  cell viability: 108%
Caco-2 [3]; 10000 nM
  cell viability: 82.3%
Calu-3 [4]; 1 nM
  cell viability: 98.2%
Calu-3 [4]; 10 nM
  cell viability: 102%
Calu-3 [4]; 100 nM
  cell viability: 99.4%
Calu-3 [4]; 1000 nM
  cell viability: 114%
Calu-3 [4]; 10000 nM
  cell viability: 85.7%
HepG2 [5]; 1 nM
  cell viability: 104%
HepG2 [5]; 10 nM
  cell viability: 104%
HepG2 [5]; 100 nM
  cell viability: 101%
HepG2 [5]; 1000 nM
  cell viability: 97.3%
HepG2 [5]; 10000 nM
  cell viability: 70.4%
U2OS [6]; 1 nM
  cell viability: 92.4%
U2OS [6]; 10 nM
  cell viability: 99.5%
U2OS [6]; 100 nM
  cell viability: 96.6%
U2OS [6]; 1000 nM
  cell viability: 100%
U2OS [6]; 10000 nM
  cell viability: 73.8%
Vero E6 [7]; 1 nM
  cell viability: 98.5%
Vero E6 [7]; 10 nM
  cell viability: 93.1%
Vero E6 [7]; 100 nM
  cell viability: 100%
Vero E6 [7]; 1000 nM
  cell viability: 102%
Vero E6 [7]; 10000 nM
  cell viability: 78.8%
[8]; 0.1 µM
  SARS-CoV-2 infection rate: 103%
[8]; 0.3 µM
  SARS-CoV-2 infection rate: 100%
[8]; 1 µM
  SARS-CoV-2 infection rate: 86%
[8]; 3 µM
  SARS-CoV-2 infection rate: 95%
A549-ACE2; 0.3 µM, 24 h
  drug-induced phospholipidosis: -4.95%
A549-ACE2; 0.3 µM, 48 h
  drug-induced phospholipidosis: 1.83%
A549-ACE2; 0.3 µM, 72 h
  drug-induced phospholipidosis: 1.77%
A549-ACE2; 0.833333 µM, 24 h
  drug-induced phospholipidosis: -12.2%
A549-ACE2; 0.833333 µM, 48 h
  drug-induced phospholipidosis: -4.03%
A549-ACE2; 0.833333 µM, 72 h
  drug-induced phospholipidosis: -0.315%
A549-ACE2; 3.33333 µM, 24 h
  drug-induced phospholipidosis: -21.2%
A549-ACE2; 3.33333 µM, 48 h
  drug-induced phospholipidosis: -14.2%
A549-ACE2; 3.33333 µM, 72 h
  drug-induced phospholipidosis: -6.78%
A549-ACE2; 6.66667 µM, 24 h
  drug-induced phospholipidosis: -22.8%
A549-ACE2; 10 µM, 24 h
  drug-induced phospholipidosis: -21.3%
A549-ACE2; 30 µM, 24 h
  drug-induced phospholipidosis: -18.1%
[1]; 0.1 µM
  morphology score: -0.23
[1]; 0.3 µM
  morphology score: -0.27
[1]; 1 µM
  morphology score: -0.14
[1]; 3 µM
  morphology score: -0.15
Caco-2 [9]
  relative viability EC50: > 10 µM
Calu-3 [10]
  relative viability EC50: > 10 µM
Vero E6 [11]
  relative viability EC50: > 10 µM
Caco-2 [12]
  drug sensitivity score: 0.2
Calu-3 [13]
  drug sensitivity score: 0
HepG2 [14]
  drug sensitivity score: 1.7
U2OS [15]
  drug sensitivity score: 1
Vero E6 [16]
  drug sensitivity score: 0.6
